Some test systems named below: CCRF-CEM leukemia; DLD-1 colon; DMS 114 small cell lung; DMS 273 small cell lung; HCT-15 colon; KM20L2 colon; LXFL 529 NSCLC; M19-MEL melanoma; NCI-H460 lung; SK-MEL-28 melanoma; SK-OV-3 ovarian; SNB-78 CNS; NCI/ADR-RES ovarian; XF 498 CNS.
Common to all, as to experiment: NCI tumour cell line growth inhibition, 48 h

The structures appear in SMILES notation.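 Values below derive from 48-hour exposures of cells grown in 96-well plates, with endpoints linearly interpolated between the two concentrations bracketing the appropriate inhibition level. Here, GI50 denotes the concentration required for 50% inhibition of growth. The concentration for full growth arrest is given as TGI.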 A value given as a limit tells only on which side of the number the result lay.

For the compound `O=C1c2ccccc2C(=O)N1Cc1ccccc1-c1c2nc(c(-c3ccccc3CN3C(=O)c4ccccc4C3=O)c3ccc([nH]3)c(-c3ccccc3CN3C(=O)c4ccccc4C3=O)c3nc(c(-c4ccccc4CN4C(=O)c5ccccc5C4=O)c4ccc1[nH]4)C=C3)C=C2`, the TGI in the experiment with CCRF-CEM leukemia, in the experiment on DLD-1 colon, with DMS 114 small cell lung, in the experiment on DMS 273 small cell lung, with HCT-15 colon and in the experiment with KM20L2 colon was above 100 µM throughout. For the same compound, the TGI with LXFL 529 NSCLC, in the experiment on M19-MEL melanoma, in the experiment on NCI-H460 lung, in the experiment with SK-MEL-28 melanoma, in the experiment on SK-OV-3 ovarian and with SNB-78 CNS was above 100 µM each time.
On to `NC1=NS(=O)(=O)Nc2nc(-c3ccc([N+](=O)[O-])cc3)[nH]c21`, for which the TGI in the experiment on CCRF-CEM leukemia, in the experiment on DLD-1 colon, with DMS 114 small cell lung, with DMS 273 small cell lung, in the experiment with HCT-15 colon and in the experiment with LXFL 529 NSCLC was above 100 µM throughout. In addition, the TGI in the experiment with M19-MEL melanoma, in the experiment on NCI-H460 lung, in the experiment with SK-MEL-28 melanoma and in the experiment on SK-OV-3 ovarian was above 100 µM throughout.
As for `NC1=NS(=O)(=O)Nc2nc(-c3ccc([N+](=O)[O-])o3)[nH]c21`, the TGI with CCRF-CEM leukemia is 16.9 µM; in the experiment with DLD-1 colon, 32 µM; in the experiment on DMS 114 small cell lung, 34 µM; in the experiment with DMS 273 small cell lung it was 38.7 µM; in the experiment with HCT-15 colon, 44.1 µM; in the experiment with KM20L2 colon it was 58.6 µM. Besides, the TGI came to 25.7 µM in the experiment with LXFL 529 NSCLC, 32.4 µM in the experiment on M19-MEL melanoma, 44 µM in the experiment with NCI-H460 lung and 30.1 µM in the experiment on SK-MEL-28 melanoma.
As to `COc1cc(Nc2c3ccccc3nc3ccccc23)ccc1NS(C)(=O)=O`, the TGI with CCRF-CEM leukemia is above 100 µM; with DLD-1 colon it was 22 µM; with KM20L2 colon it was 17.1 µM; in the experiment on LXFL 529 NSCLC, 35 µM; in the experiment on M19-MEL melanoma, 22.3 µM; in the experiment with NCI-H460 lung, 12 µM. The TGI is 20.4 µM with SK-MEL-28 melanoma, 30.8 µM with SK-OV-3 ovarian and 47.1 µM in the experiment on SNB-78 CNS.
Turning to `CCN1C(=O)C(=C/C=C/c2ccc([N+](=O)[O-])cc2)C(=O)N(CC)C1=S`, the TGI is above 100 µM with CCRF-CEM leukemia; above 100 µM in the experiment on HCT-15 colon; above 100 µM with NCI-H460 lung; 45.2 µM in the experiment with NCI/ADR-RES ovarian; 31.9 µM in the experiment with SK-MEL-28 melanoma; above 100 µM in the experiment with SK-OV-3 ovarian.
Consider `CCc1ccc2oc(-c3cc(O)c(-c4nc5cc(CC)ccc5o4)cc3O)nc2c1`, for which the TGI in the experiment with CCRF-CEM leukemia, with HCT-15 colon, in the experiment on NCI-H460 lung, in the experiment with NCI/ADR-RES ovarian, in the experiment on SK-MEL-28 melanoma and in the experiment with SK-OV-3 ovarian was above 100 µM each time.
`CCOC(=O)/C=C(\C(=O)OCC)n1cc(C)c(=O)n(Cc2cnnn2CCCCOC(C)=O)c1=O`: in the experiment with CCRF-CEM leukemia, the GI50 is 1.32 µM. Further, the TGI with CCRF-CEM leukemia is 4.71 µM; in the experiment on HCT-15 colon it was above 25.2 µM; with NCI-H460 lung, 65.7 µM; in the experiment with NCI/ADR-RES ovarian, 35.8 µM; in the experiment with SK-MEL-28 melanoma, 25.1 µM; with SK-OV-3 ovarian, above 92.4 µM.
In the case of `Cc1[nH]c(=O)[nH]c(=O)c1/C=C/C(=O)O`, the TGI in the experiment on CCRF-CEM leukemia, with DLD-1 colon, with DMS 114 small cell lung, with DMS 273 small cell lung, in the experiment on HCT-15 colon and in the experiment on KM20L2 colon was above 1000 µM throughout. Moreover, the TGI in the experiment with M19-MEL melanoma, in the experiment on NCI-H460 lung, in the experiment with NCI/ADR-RES ovarian, in the experiment on SK-MEL-28 melanoma, with SK-OV-3 ovarian and in the experiment on SNB-78 CNS was above 1000 µM each time. Besides, the TGI in the experiment with XF 498 CNS is above 1000 µM.
Turning to `O=c1c2c([N+](=O)[O-])cccc2nc2[nH]c3ccccc3n12`, the TGI in the experiment on CCRF-CEM leukemia was above 75 µM; in the experiment with HCT-15 colon, above 75 µM; in the experiment with NCI-H460 lung, above 75 µM; with NCI/ADR-RES ovarian, above 75 µM; with SK-MEL-28 melanoma, above 75 µM; with SK-OV-3 ovarian, 24.6 µM.
As to `Nc1ccc2[nH]c3c(-c4ccccc4)nccc3c2c1`, the TGI in the experiment on CCRF-CEM leukemia, in the experiment with DLD-1 colon, in the experiment with DMS 114 small cell lung, in the experiment on DMS 273 small cell lung, in the experiment on HCT-15 colon and in the experiment on KM20L2 colon was above 100 µM throughout. Further, the TGI in the experiment with M19-MEL melanoma, in the experiment with NCI-H460 lung, in the experiment on NCI/ADR-RES ovarian, in the experiment with SK-MEL-28 melanoma, in the experiment on SK-OV-3 ovarian and in the experiment with SNB-78 CNS was above 100 µM throughout. Besides, the TGI in the experiment with XF 498 CNS was above 100 µM.
With `O=C1c2ccccc2CCCCCCCCCCC12OCCCO2`, the TGI was 83.3 µM with CCRF-CEM leukemia; above 100 µM in the experiment on DLD-1 colon; 37.5 µM in the experiment on DMS 114 small cell lung; above 100 µM with DMS 273 small cell lung; 92.3 µM in the experiment on HCT-15 colon; 71.7 µM with KM20L2 colon. Also, the TGI in the experiment with LXFL 529 NSCLC, in the experiment with M19-MEL melanoma, in the experiment on NCI-H460 lung, in the experiment on SK-MEL-28 melanoma, in the experiment on SK-OV-3 ovarian and in the experiment on SNB-78 CNS was above 100 µM each time.
Take `Nc1cccc(Nc2nc3ccccc3nc2NS(=O)(=O)c2ccccc2)c1`: the TGI in the experiment with CCRF-CEM leukemia is 46.7 µM; with HCT-15 colon it was 74.2 µM; in the experiment with NCI-H460 lung, 71.1 µM; in the experiment with NCI/ADR-RES ovarian it was above 100 µM; in the experiment on SK-MEL-28 melanoma it was 49.3 µM; in the experiment on SK-OV-3 ovarian it was above 100 µM.
Consider `COC(=O)C1=C(C(=O)OC)SC2(S1)C1=C(CCCC1)SC(C(=O)OC)=C2C(=O)OC`, for which the TGI in the experiment on CCRF-CEM leukemia turned out to be 8.16 µM; with HCT-15 colon, 18.1 µM; in the experiment on NCI-H460 lung, 15.7 µM; in the experiment on NCI/ADR-RES ovarian, 40.9 µM; with SK-MEL-28 melanoma, 22.5 µM; in the experiment on SK-OV-3 ovarian, 28.1 µM.
`O=C(OCC1OC2OC(c3ccccc3)(n3ccc4c([N+](=O)[O-])ccnc43)OC2C1OC(=O)c1ccccc1)c1ccccc1` (configuration not stated): the TGI in the experiment on CCRF-CEM leukemia, with HCT-15 colon, in the experiment on NCI-H460 lung, in the experiment with NCI/ADR-RES ovarian, in the experiment with SK-MEL-28 melanoma and in the experiment with SK-OV-3 ovarian was above 100 µM each time.

Values taken from PubChem BioAssay (NCI).
